Article PMC6413231, “o-Vanillin Derived Schiff Bases and Their Organotin(IV) Compounds: Synthesis, Structural Characterisation, In-Silico Studies and Cytotoxicity” (International Journal of Molecular Sciences, 2019)

What was measured:
RT-112 cells = assay: Intracellular ROS measurement (DCFH-DA); format: cell-based, human; details: 24 h, DMSO as control
Source text: Two compounds with the most promising bioactivity, Ph2Sn(S2MoVa) and Ph2Sn(S4MoVa), were selected for further cell apoptosis studies, in order to evaluate the primary damage to biological macromolecules through redox reactions, particularly via formation of ROS [68]. ROS are highly reactive molecules/radicals (O2, O2^•, H2O2, HO^•) that are continuously generated during aerobic metabolism, but when in excessive amounts, can lead to protein and DNA oxidation, protein cross-linking and cell death. Estimation of the levels of ROS in cell culture is an important step towards better understanding the mechanisms that lead to cell death or disease processes. […] ROS production was measured using the ROS-detecting fluorescent dye DCFH-DA and DMSO was used as a control. Both compounds were able to induce ROS production in RT-112 cell lines after 24 h.
Intracellular ROS measurements were used to assess antioxidant or ROS activity. Measurements were performed using a fluorescence plate reader following to the procedure outlines in the ROS detection kit (OxiSelect™). […] The cells were then read on a standard Infinite M200 fluorescence microplate reader (Tecan, Männedorf, Switzerland). The ROS or antioxidant content in unknown samples was determined by comparison with the predetermined DCF standard curve.

calf thymus DNA (CT-DNA) = assay: CT-DNA binding by UV-vis absorption titration; details: for Bathochromism Shift (nm) / Hypochromism, (%): CT-DNA, UV-vis absorption titration; for Gibbs Free Energy: interaction with CT-DNA
Protocol: Both theoretical and experimental DNA binding of the synthesised organotin(IV) compounds with DNA were investigated. The interaction of organotin(IV) compounds with CT-DNA was elucidated via UV-visible absorption spectroscopy. […] The absorption spectra of diphenyltin(IV) compounds at a constant concentration (50 μM) in the absence and the presence of different concentrations of CT-DNA are shown in Figure 8. Upon increasing concentrations of CT-DNA, hypochromism and bathochromism occurred at around 350–377 nm indicating strong π–π stacking interactions between the aromatic chromophore of the organotin(IV) compounds and the nitrogeneous pair of the DNA strand [11, 70]. The same hypochromism and bathochromism shifts were also observed in other transitions. In order to compare the binding strength of the organotin(IV) compounds to CT-DNA, the intrinsic binding constants (Kb) were quantitatively determined and are presented in Table 3.
DNA binding experiments were carried out at 25°C. DNA concentration per nucleotide was determined using the molar absorption coefficient (6600 M^−1 cm^−1) at 260 nm. […] Absorption titration experiments were performed maintaining the concentration of the organotin(IV) compounds solutions at 50 µM and gradually increasing the concentration of CT-DNA. The organotin(IV) compounds were dissolved in DMSO and diluted with Tris-HCI buffer at room temperature (25 °C). The solutions were scanned over 230–600 nm. Absorbance values were recorded 10 min after the addition of DNA solution. The binding constant, Kb was determined using the equation: [DNA]/(εa−εf)=[DNA]/(εb−εf)+1/Kb(εb−εf) where [DNA] is the concentration of DNA in base pairs, εa corresponds to the apparent molar extinction coefficient Aabs/[M], εf corresponds to the extinction coefficient for the free organotin [M] and εb corresponds to the extinction coefficient for the fully bound organotin compound.

Substance: Diphenyltin(IV) [Ph2Sn(S4MoVa), Diphenyltin(IV) [S-4-Methybenzyl-β-N-(2-hydroxy-3-methoxybenzylmethylene) dithiocarbazate]]
- ROS generation (RT-112 cells): stimulated ROS generation
- Bathochromism Shift (nm) (calf thymus DNA (CT-DNA)): 4 nm
- Hypochromism, (%) (calf thymus DNA (CT-DNA)): 28.25%
- Gibbs Free Energy (calf thymus DNA (CT-DNA)): -7.41 kcal/mol

Substance: Diphenyltin(IV) [Ph2Sn(S2MoVa), Diphenyltin(IV) [S-2-Methybenzyl-β-N-(2-hydroxy-3-methoxybenzylmethylene) dithiocarbazate]]
- ROS generation (RT-112 cells): stimulated ROS generation
- Bathochromism Shift (nm) (calf thymus DNA (CT-DNA)): 6 nm
- Hypochromism, (%) (calf thymus DNA (CT-DNA)): 41.06%
- Gibbs Free Energy (calf thymus DNA (CT-DNA)): -7.91 kcal/mol
